# Data published in ChEMBL document CHEMBL2202958, “Development of potent macrocyclic inhibitors of genotype 3a HCV NS3/4A protease” (Bioorg Med Chem Lett, 2012).
# Experiments:
# [1] = Drug level in Sprague-Dawley rat liver at 5 mg/kg, po after 4 hrs; type: ADME, organism-based; design: dose 5 mg/kg, route oral; settings: read-out: Drug uptake
# [2] = Inhibition of HCV1b BK NS3/4A protease expressed in Escherichia coli after 1 hr by time-resolved fluorescence assay; design: species or system Hepatitis C virus (isolate BK)
# Hepatitis C virus [3] = assay: Antiviral activity against HCV1b con1 infected in human Huh-7 cells assessed as inhibition of viral replication after 24 hrs in presence of 50% normal human serum; type: functional, organism-based, Hepacivirus hominis; settings: Con1, Huh-7, 24 h
# Hepatitis C virus [4] = assay: Antiviral activity against HCV1b con1 infected in human Huh-7 cells assessed as inhibition of viral replication after 24 hrs in presence of 10% fetal bovine serum; type: functional, organism-based, Hepacivirus hominis; settings: Con1, Huh-7, 24 h
# [5] = Inhibition of HCV3a NS3/4A protease by time-resolved fluorescence assay; design: species or system Hepatitis C virus subtype 3a
# Hepatitis C virus [6] = assay: Inhibition of HCV1b NS3/4A protease R155K mutant by time-resolved fluorescence assay; design: species or system Hepatitis C virus subtype 1b
# Hepatitis C virus [7] = assay: Inhibition of HCV1b NS3/4A protease A156T mutant by time-resolved fluorescence assay; design: species or system Hepatitis C virus subtype 1b
# [8] = Inhibition of HCV3a NS3/4A protease; design: species or system Hepatitis C virus subtype 3a
Compound,concentration at 4 h [1] [µM],IC50 (Hepatitis C virus [4]) [nM],Ki [5] [nM],Ki [8] [nM],Ki [2] [nM],IC50 (Hepatitis C virus [3]) [nM],Ki (Hepatitis C virus [6]) [nM],Ki (Hepatitis C virus [7]) [nM]
C=C[C@@H]1C[C@]1(NC(=O)[C@@H]1C[C@@H]2CN1C(=O)[C@H](C1CCCC1)NC(=O)OCC(C)(C)CCCc1cc3c(nc4cc(OC)ccc4c3cc1OC)O2)C(=O)NS(=O)(=O)C1CC1,35,4,0.8,,< 0.02,27,0.4,16
C=C[C@@H]1C[C@]1(NC(=O)[C@@H]1C[C@@H]2CN1C(=O)[C@H](C1CCCC1)NC(=O)OCC(C)(C)CCCc1cc3c(cc(OCC)nc3cc1OC)O2)C(=O)NS(=O)(=O)C1CC1,35,2,2.2,,0.03,11,1.3,41
C=C[C@@H]1C[C@]1(NC(=O)[C@@H]1C[C@@H]2CN1C(=O)[C@H](C1CCCC1)NC(=O)OCC(C)(C)CCCc1cc3c(nc4ccc(Cl)cc4c3cc1OC)O2)C(=O)NS(=O)(=O)C1CC1,,7,36,,< 0.02,31,,
C=C[C@@H]1C[C@]1(NC(=O)[C@@H]1C[C@@H]2CN1C(=O)[C@H](C1CCCC1)NC(=O)OCC(C)(C)CCCc1cc3c(nc4cc(C)ccc4c3cc1OC)O2)C(=O)NS(=O)(=O)C1CC1,16,4,1.9,,< 0.02,15,,
C=C[C@@H]1C[C@]1(NC(=O)[C@@H]1C[C@@H]2CN1C(=O)[C@H](C1CCCCC1)NC(=O)OCC(C)(C)CCCc1cc3c(cc(-c4ccccc4)nc3cc1OC)O2)C(=O)NS(=O)(=O)C1CC1,9.9,3.6,21,,0.05,28,,
C=C[C@@H]1C[C@]1(NC(=O)[C@@H]1C[C@@H]2CN1C(=O)[C@H](C1CCCCC1)NC(=O)OCC(C)(C)CCCc1cc3c(cc(-c4ccc(OC)cc4)nc3cc1OC)O2)C(=O)NS(=O)(=O)C1CC1,6.1,3,18,,0.07,25,,
C=C[C@@H]1C[C@]1(NC(=O)[C@@H]1C[C@@H]2CN1C(=O)[C@H](C1CCCCC1)NC(=O)OCC(C)(C)CCCc1cc3c(cc(-c4ccc(F)cc4)nc3cc1OC)O2)C(=O)NS(=O)(=O)C1CC1,,11,29,,0.18,110,,
C=C[C@@H]1C[C@]1(NC(=O)[C@@H]1C[C@@H]2CN1C(=O)[C@H](C1CCCCC1)NC(=O)OCC(C)(C)CCCc1cc3c(cc(N(C)C(=O)OCC)nc3cc1OC)O2)C(=O)NS(=O)(=O)C1CC1,42,5,4.3,,0.03,27,3.3,87
C=C[C@@H]1C[C@]1(NC(=O)[C@@H]1C[C@@H]2CN1C(=O)[C@H](C1CCCCC1)NC(=O)OCC(C)(C)CCCc1cc3c(cc(O)nc3cc1OC)O2)C(=O)NS(=O)(=O)C1CC1,0.07,85,23,,0.07,460,,
C=C[C@@H]1C[C@]1(NC(=O)[C@@H]1C[C@@H]2CN1C(=O)[C@H](C1CCCCC1)NC(=O)OCC(C)(C)CCCc1cc3c(cc(OC4CCCC4)nc3cc1OC)O2)C(=O)NS(=O)(=O)C1CC1,4.6,5,15,,0.05,34,,
C=C[C@@H]1C[C@]1(NC(=O)[C@@H]1C[C@@H]2CN1C(=O)[C@H](C1CCCCC1)NC(=O)OCC(C)(C)CCCc1cc3c(cc(OCc4csc(C)n4)nc3cc1OC)O2)C(=O)NS(=O)(=O)C1CC1,19,3.5,3.1,,0.1,16,2.1,88
C=C[C@@H]1C[C@]1(NC(=O)[C@@H]1C[C@@H]2CN1C(=O)[C@H](C1CCCC1)NC(=O)OCC(C)(C)CCCc1cc3c(cc(OCc4csc(C(C)C)n4)nc3cc1OC)O2)C(=O)NS(=O)(=O)C1CC1,2.7,4,2,,< 0.02,26,,
C=C[C@@H]1C[C@]1(NC(=O)[C@@H]1C[C@@H]2CN1C(=O)[C@H](C1CCCC1)NC(=O)OCC(C)(C)CCCc1cc3c(cc(OCc4ncn(C)n4)nc3cc1OC)O2)C(=O)NS(=O)(=O)C1CC1,0.03,36,1,,0.03,170,,
C=C[C@@H]1C[C@]1(NC(=O)[C@@H]1C[C@@H]2CN1C(=O)[C@H](C1CCCCC1)NC(=O)OCC(C)(C)CCCc1cc3c(cc4nccn4c3cc1OC)O2)C(=O)NS(=O)(=O)C1CC1,0.8,43,1.8,,0.04,140,,
C=C[C@@H]1C[C@]1(NC(=O)[C@@H]1C[C@@H]2CN1C(=O)[C@H](C1CCCC1)NC(=O)OCC(C)(C)CCCc1cc3c(nc4ccccc4c3cc1OC)O2)C(=O)NS(=O)(=O)C1CC1,27,3,1.7,,< 0.02,29,,

# The next lines start with results.
concentration at 4 h [1] [µM],IC50 (Hepatitis C virus [4]) [nM],Ki [5] [nM],Ki [8] [nM],Compound,Ki [2] [nM],IC50 (Hepatitis C virus [3]) [nM],Ki (Hepatitis C virus [6]) [nM],Ki (Hepatitis C virus [7]) [nM]
7.5,4,0.8,,C=C[C@@H]1C[C@]1(NC(=O)[C@@H]1C[C@@H]2CN1C(=O)[C@H](C1CCCC1)NC(=O)OCC(C)(C)CCCc1cc3c(nc4cc(C#N)ccc4c3cc1OC)O2)C(=O)NS(=O)(=O)C1CC1,< 0.02,13,,
22,9,0.9,,C=C[C@@H]1C[C@]1(NC(=O)[C@@H]1C[C@@H]2CN1C(=O)[C@H](C1CCCC1)NC(=O)OCC(C)(C)CCCc1cc3c(nc4cc(F)ccc4c3cc1OC)O2)C(=O)NS(=O)(=O)C1CC1,< 0.02,43,,
6.7,6,78,,C=C[C@@H]1C[C@]1(NC(=O)[C@@H]1C[C@@H]2CN1C(=O)[C@H](C1CCCCC1)NC(=O)OCC(C)(C)CCCc1cc3c(cc(-c4cccc(OC)c4)nc3cc1OC)O2)C(=O)NS(=O)(=O)C1CC1,0.07,19,,
6.3,7,62,,C=C[C@@H]1C[C@]1(NC(=O)[C@@H]1C[C@@H]2CN1C(=O)[C@H](C1CCCCC1)NC(=O)OCC(C)(C)CCCc1cc3c(cc(-c4ccccc4OC)nc3cc1OC)O2)C(=O)NS(=O)(=O)C1CC1,0.09,31,,
0.2,27,55,,C=C[C@@H]1C[C@]1(NC(=O)[C@@H]1C[C@@H]2CN1C(=O)[C@H](C1CCCCC1)NC(=O)OCC(C)(C)CCCc1cc3c(cc(-c4cccnc4)nc3cc1OC)O2)C(=O)NS(=O)(=O)C1CC1,,92,,
< 0.005,1.6,5.4,,C=C[C@@H]1C[C@]1(NC(=O)[C@@H]1C[C@@H]2CN1C(=O)[C@H](C1CCCCC1)NC(=O)OCC(C)(C)CCCc1cc3c(cc(NC)nc3cc1OC)O2)C(=O)NS(=O)(=O)C1CC1,0.09,90,,
0.1,5,7.5,,C=C[C@@H]1C[C@]1(NC(=O)[C@@H]1C[C@@H]2CN1C(=O)[C@H](C1CCCCC1)NC(=O)OCC(C)(C)CCCc1cc3c(cc(N4CCCCC4)nc3cc1OC)O2)C(=O)NS(=O)(=O)C1CC1,0.07,26,,
,39,7.6,,C=C[C@@H]1C[C@]1(NC(=O)[C@@H]1C[C@@H]2CN1C(=O)[C@H](C1CCCCC1)NC(=O)OCC(C)(C)CCCc1cc3c(cc(NC4CCCCC4)nc3cc1OC)O2)C(=O)NS(=O)(=O)C1CC1,0.12,1200,,
5.4,4,4.1,,C=C[C@@H]1C[C@]1(NC(=O)[C@@H]1C[C@@H]2CN1C(=O)[C@H](C1CCCCC1)NC(=O)OCC(C)(C)CCCc1cc3c(cc(OC)nc3cc1OC)O2)C(=O)NS(=O)(=O)C1CC1,0.04,19,,
40,6,7.6,,C=C[C@@H]1C[C@]1(NC(=O)[C@@H]1C[C@@H]2CN1C(=O)[C@H](C1CCCCC1)NC(=O)OCC(C)(C)CCCc1cc3c(cc(OCC)nc3cc1OC)O2)C(=O)NS(=O)(=O)C1CC1,0.09,43,,
0.8,5,1.6,,C=C[C@@H]1C[C@]1(NC(=O)[C@@H]1C[C@@H]2CN1C(=O)[C@H](C1CCCC1)NC(=O)OCC(C)(C)CCCc1cc3c(cc(OCc4csc(C)n4)nc3cc1OC)O2)C(=O)NS(=O)(=O)C1CC1,0.09,26,,
2.6,4,1.1,,C=C[C@@H]1C[C@]1(NC(=O)[C@@H]1C[C@@H]2CN1C(=O)[C@H](C1CCCC1)NC(=O)OCC(C)(C)CCCc1cc3c(cc(OCc4ncco4)nc3cc1OC)O2)C(=O)NS(=O)(=O)C1CC1,< 0.02,16,,
0.7,33,5.2,,C=C[C@@H]1C[C@]1(NC(=O)[C@@H]1C[C@@H]2CN1C(=O)[C@H](C1CCCCC1)NC(=O)OCC(C)(C)CCCc1ccc3c(c1)c(cc1nccn13)O2)C(=O)NS(=O)(=O)C1CC1,0.08,180,,
,,,54,CC[C@@H]1C[C@]1(NC(=O)[C@@H]1C[C@@H]2CN1C(=O)[C@H](C(C)(C)C)NC(=O)OCC(C)(C)CCCCc1cccc3c1CN(C3)C(=O)O2)C(=O)NS(=O)(=O)C1CC1 [VANIPREVIR],,,,
